# Where two headings read alike, the source gives them in different places. Marks after values point to notes of the source that are not given here.
# What was measured:
# Escherichia coli B-683 = assay: Sensitivity of strains: suppression of growth; type: cell-based; conditions: Compound (1) 1.0%; antibiotics disc method
# [1] = system: Salmonella paratyphi M-16469; assay: Sensitivity of strains: suppression of growth; type: cell-based; conditions: Compound (1) 1.0%; antibiotics disc method
# Alkaligenes sp. B-689 = assay: Sensitivity of strains: suppression of growth; type: cell-based; conditions: Compound (1) 1.0%; antibiotics disc method
# Bacillus sp. B-575 = assay: Sensitivity of strains: suppression of growth; type: cell-based; conditions: Compound (1) 1.0%; antibiotics disc method; further: key: + sensitive strains; + moderately sensitive strains; − stable strains
# [2] = system: Staphylococcus aureus M-209; assay: Sensitivity of strains: suppression of growth; type: cell-based; conditions: Compound (1) 1.0%; antibiotics disc method
# Shigella sonnei B-720 = assay: Agar diffusion assay; type: cell-based
# [3] = system: Salmonella paratyphi M-16469; assay: Agar diffusion assay; type: cell-based
# Geotrichum M-158 = assay: Sensitivity of pathogenic fungi; type: cell-based; conditions: Inoculation 10^5
# [4] = system: Corynebacterium xerosis RMIT; assay: NCCLS broth microdilution MIC/MBC; type: cell-based; conditions: for MIC: Corynebacterium xerosis
# Clostridium perfringens = assay: microbe, parasite or virus in culture; type: cell-based; conditions: 48 h
# [5] = system: Campylobacter jejuni RMIT FF3; assay: NCCLS broth microdilution MIC/MBC; type: cell-based; conditions: Table 9, 48 h
# Klebsiella pneumoniae [6] = assay: NCCLS broth microdilution MIC/MBC; type: cell-based; conditions: for MIC: Klebsiella pneumoniae
# Epidermophyton floccosum = assay: NCCLS broth macro-dilution MIC/MFC (RPMI); type: cell-based; conditions: Table 10, 7 day, 30° C.
# Candida albicans = assay: microbe, parasite or virus in culture; type: cell-based; conditions: for MIC: Candida albicans
# Rhodotorula rubra = assay: microbe, parasite or virus in culture; type: cell-based; conditions: for MIC: Rhodotorula
# M. catarrhalis = assay: Antibacterial activity in the presence of blood, macrodilution; type: cell-based; conditions: for MIC: Moraxella catarrhalis
# C. krusei RMIT 177 = assay: M38-P microdilution MIC/MFC; type: cell-based; conditions: 35° C.
# Cryptococcus neoformans = assay: M38-P microdilution MIC/MFC; type: cell-based; conditions: Cryptococcus neoformans, Table 16, 24 h, 35° C., read-out: MIC
# Fusarium graminearum = assay: microbe, parasite or virus in culture; type: cell-based; conditions: 48 h
# F. chlamydosporum = assay: M38-P microdilution MIC/MFC; type: cell-based; conditions: Table 16, 48 h, 35° C.
# Paecilomyces variotii = assay: M38-P microdilution MIC/MFC; type: cell-based; conditions: Table 16, 48 h, 35° C.
# [7] = system: clinical isolate of Trichomonas vaginalis; assay: microbe, parasite or virus in culture; type: cell-based
# [8] = system: skin wounds infected by Streptococcus and Staphylococcus; assay: Treatment of infected wounds, human volunteers; type: in vivo; conditions: 0.1% ointment for 3 days
# Description: Human volunteers suffering from skin wounds infected by Streptococcus and Staphylococcus were treated with 0.1% Compounds (1) and (2) in an ointment base of vaseline, sheep fat, and sulfoxide.
# [9] = system: Staphylococci epidermidis B-513; assay: Agar diffusion assay
# [10] = system: Salmonella typhimurium M-727; assay: Agar diffusion assay
# Staphylococcus aureus = assay: Rate of kill, viable counts
# Klebsiella oxytoca = assay: Rate of kill, viable counts
# [11] = system: Acinetobacter calcoaceticus; assay: Rate of kill, viable counts; conditions: in 6 h
# [12] = system: Enterococcus faecalis museum strain; assay: Impregnated agar serial double dilutions; conditions: meat peptone agar
# [13] = system: Salmonella typhimurium museum strain 727; assay: Impregnated agar serial double dilutions; conditions: meat peptone agar
# Klebsiella pneumoniae [14] = assay: Agar plug diffusion, zone of retardation; conditions: plug impregnated at 0.5%
# Salmonella typhimurium = assay: Agar plug diffusion, zone of retardation; conditions: plug impregnated at 0.5%
# [15] = before exposure, MHB, read-out: Standard MIC Initial
smiles,measurement,setting,value
C/C(=C\c1ccc2c(c1)OCO2)[N+](=O)[O-] [Compound (1)],Suppression of Growth (+/−),Escherichia coli B-683,+
same,Suppression of Growth (+/−),[1],+
same,Suppression of Growth (+/−),Alkaligenes sp. B-689,+
same,Suppression of Growth (+/−),Bacillus sp. B-575,+
same,Suppression of Growth (+/−),[2],+
same,Diameter of zone of Growth inhibition,Shigella sonnei B-720; Concentration in disc 0.1%,30# mm
same,Diameter of zone of Growth inhibition,Shigella sonnei B-720; Concentration in disc 1.0%,35# mm
same,Diameter of zone of Growth inhibition,Shigella sonnei B-720; Concentration in disc 2.0%,39# mm
same,Diameter of zone of Growth inhibition,[3]; Concentration in disc 0.1%,28# mm
same,Diameter of zone of Growth inhibition,[3]; Concentration in disc 1.0%,30# mm
same,Diameter of zone of Growth inhibition,[3]; Concentration in disc 2.0%,36# mm
same,Number of microbes: Growth,Geotrichum M-158; 0.1%,0
same,Number of microbes: Retardation,Geotrichum M-158; 0.1%,10^4
same,Number of microbes: Growth,Geotrichum M-158; 0.5%,0
same,Number of microbes: Retardation,Geotrichum M-158; 0.5%,10^5
same,Number of microbes: Growth,Geotrichum M-158; 2.0%,0
same,Number of microbes: Retardation,Geotrichum M-158; 2.0%,10^5
same,MIC,"[4]; Table 9, 35° C., 24 hours",32.2 µg/mL
same,MIC,"[4]; Table 17, 2 or 3 replicates",32 µg/mL
same,MMC,"[4]; Table 9, 35° C., 24 hours",32.16 µg/mL
same,MMC,"[4]; Table 17, 2 or 3 replicates",32 µg/mL
same,MIC,Clostridium perfringens; Clostridium perfringens,16 µg/mL
same,MMC,Clostridium perfringens; Table 9,32 µg/mL
same,MIC,"[5]; Campylobacter jejuni, RMITFF3",2 µg/mL
same,MMC,[5],2 µg/mL
same,MIC,"Klebsiella pneumoniae [6]; Table 9, 35° C., 24 hours",512 µg/mL
same,MIC,"Klebsiella pneumoniae [6]; Table 17, 2 or 3 replicates",512 µg/mL
same,MMC,"Klebsiella pneumoniae [6]; Table 9, 35° C., 24 hours",>512 µg/mL
same,MMC,"Klebsiella pneumoniae [6]; Table 17, 2 or 3 replicates",>512 µg/mL
same,MIC,"Epidermophyton floccosum; Epidermophyton floccosum, 168 h",0.5 µg/mL
same,MMC,Epidermophyton floccosum,16 µg/mL
same,MIC,"Candida albicans; after 12 weeks continuous exposure, read-out: Standard MIC Final",4 µg/mL
same,MIC,Candida albicans; [15],4 µg/mL
same,7-Day MIC Range,"Candida albicans; Range to Week 12, No Rising Trend",16 to 64 µg/mL
same,MIC,"Rhodotorula rubra; Table 20, […], after 12 weeks continuous exposure, read-out: MIC Final",16 µg/mL
same,MIC,"Rhodotorula rubra; Table 20, […], parent strain, read-out: MIC Initial",8 µg/mL
same,MIC,Rhodotorula rubra; [15],8 µg/mL
same,7-Day MIC Range,Rhodotorula rubra; to Wk 5,8-32 to Wk 5 μg/mL
same,MMC,M. catarrhalis; 5% blood,8 µg/mL
same,MMC,M. catarrhalis; 10% plasma,8 µg/mL
same,MIC,M. catarrhalis; 5% blood,4 µg/mL
same,MIC,M. catarrhalis; 10% plasma,8 µg/mL
same,MIC,M. catarrhalis; — (no plasma or blood),32 µg/mL
same,MIC,"C. krusei RMIT 177; Pichia kudriavzevii, RMIT177, Table 16, 24 h, read-out: MIC",4 µg/mL
same,MMC,"C. krusei RMIT 177; Table 16, 24 h",4 µg/mL
same,MIC,Cryptococcus neoformans,1 µg/mL
same,MIC,Fusarium graminearum; Fusarium graminearum,4 µg/mL
same,MMC,"Fusarium graminearum; Table 16, M38-P, 35° C.",8 µg/mL
same,MMC,F. chlamydosporum,8 µg/mL
same,MIC,F. chlamydosporum; read-out: MIC,8 µg/mL
same,MIC,"Paecilomyces variotii; Paecilomyces variotii, read-out: MIC",1 µg/mL
same,MMC,Paecilomyces variotii,2 µg/mL
same,MMC,[7],4 µg/mL
same,MIC,"[7]; Trichomonas vaginalis, 24 h",4 µg/mL
same,clearing of infected wound,[8],cleared the wound completely of pus
same,Diameter of zone of Growth inhibition,[9]; Concentration in disc 0.1%,32# mm
same,Diameter of zone of Growth inhibition,[9]; Concentration in disc 1.0%,34# mm
same,Diameter of zone of Growth inhibition,[9]; Concentration in disc 2.0%,38# mm
same,Diameter of zone of Growth inhibition,[10]; Concentration in disc 0.1%,24# mm
same,Diameter of zone of Growth inhibition,[10]; Concentration in disc 1.0%,30# mm
same,Diameter of zone of Growth inhibition,[10]; Concentration in disc 2.0%,32# mm
same,Log reduction in viable count,"Staphylococcus aureus; 256 μg/mL, in 6 h",0.5 in 6 h
same,Log reduction in viable count,"Staphylococcus aureus; 512 μg/mL, in 9 h",4 in 9 h
same,Log reduction in viable count,Klebsiella oxytoca; 256 μg/mL,0
same,Log reduction in viable count,Klebsiella oxytoca; 512 μg/mL,0
same,Log reduction in viable count,[11]; 256 μg/mL,1 in 6 h
same,Log reduction in viable count,[11]; 512 μg/mL,1 in 6 h
same,Minimal % Compound (1) giving complete inhibition of test culture,[12],0.015%
same,Minimal % Compound (1) giving complete inhibition of test culture,[13],0.5%
same,Size of zone of retardation of the growth,Klebsiella pneumoniae [14],5
same,Size of zone of retardation of the growth,Salmonella typhimurium,7

# Source: US20150258059A1, “ANTIMICROBIAL AND RADIOPROTECTIVE COMPOUNDS” (BioDiem, Ltd, priority 2001, published 2015)
